A word on the melting point: it is the temperature, or range, at which the solid turns liquid.

Turning to `COc1cc(NS(=O)(=O)c2ccc(Cl)cc2)c(C(=O)Nc2ccc(S(=O)(=O)F)cc2)cc1OC`, the melting point was in the range of 216 to 219 °C.

`O=C(O)C1CCc2cc(Cl)c(C3CCCCC3)cc21` (centres undefined) gave a melting point of 140 to 143 °C. The compound `CCOC(=O)CCCC(=O)c1ccc(F)cc1` returned a melting point of 46 to 47 °C. The same measure for `O=C1N=NC(=O)c2c1[nH]c1cc(Br)ccc21`: 260 °C. In turn, `C/C(=N\O)C(=O)c1ccc(F)cc1F` displayed a melting point of 99 to 101 °C.

For the compound `O=C(NO)c1cccnc1Cl`, the melting point came to 179 °C.

As to `O=c1oc(-c2ccccc2)nc2ccc(Br)cc12`, the melting point fell in the range of 199 to 201 °C.

`Cc1sc2c(c1C)C(c1ccc(Cl)cc1)=NC(CC(=O)O)c1nnc(C)n1-2` (centres undefined) displayed a melting point of 166 to 177 °C.

`COc1cc2c(c3c1OC1(CCCC1)C3)C(c1ccccc1)=NC(C)(C)C2` yielded a melting point of 130 to 131 °C.

Compound `CC(=O)Oc1ccc2c(C)cc(=O)oc2c1CC(Br)CBr` (centres undefined) had a melting point of 145 to 148 °C. As to `COc1cc(C(=O)c2c[nH]c(-c3ccc(C)cc3)n2)cc(OC)c1OC`, the melting point was in the range of 201 to 203 °C. Compound `O=CC1=C(c2ccc(Cl)c(Cl)c2)C2CCC1CC2` registered a melting point of 71 to 71.5 °C. With `CC(=O)c1cc2c(s1)CCC1CC(=O)N(c3ccc(C)cc3)N=C21` (centres undefined), the melting point was in the range of 191 to 193 °C. Compound `O=C(NCC1COCCO1)C1CCCN(c2cccc3c2C(=O)N(Cc2ccncc2)C3=O)C1` (centres undefined) yielded a melting point of 186 to 187 °C. With `N#Cc1nn(-c2c(Cl)cc(C(F)(F)F)cc2Cl)c(N)c1S(=O)(=O)C(F)(F)F` the figure was 219 to 222 °C; with `Cc1cccc2c(C=C(Br)Br)csc12`, 75 to 78 °C; with `CN(C)C(=S)SC(C[N+](=O)[O-])c1ccc2c(c1)OCO2` (centres undefined), 122 to 124 °C. With `C#CCON=C(CCC)C1=C(O)CC(c2ccc(C(=O)SC)cc2)CC1=O` (centres undefined) the figure was 95 to 96 °C; with `CN(Cc1cccc(-c2ccc(CC3SC(=O)NC3=O)cc2)c1)C(=O)c1cccs1` (centres undefined), 160 °C. `COC(=O)c1cccc(CN2CCc3cc(O)c(OC)cc3C2)c1` yielded a melting point of 156 to 158 °C. In the case of `CCOc1nn(-c2ccc(C(F)(F)F)cc2)cc1CCCOc1ccc(CCC(=O)O)cc1OC`, the melting point is 125 to 126 °C. `COc1cc(C(C)=O)ccc1OCCCCN1CCN(c2n[nH]c3cc(F)ccc23)CC1` gave a melting point of 156 to 158 °C. Take `O=C(CCCC(c1cc(F)ccc1F)S(=O)(=O)c1ccc(Cl)cc1)N1CCCC1` (centres undefined): the melting point lay in the range of 125 to 126 °C. `CC(CCC(O)CO)=Nc1ncnc2c1ncn2C1OC(CO)C(O)C1O` (centres undefined) came in with a melting point of 102 to 104 °C.

In turn, `Cc1cc(C)c(C(=O)P(=S)(C(=O)c2c(C)cc(C)cc2C)c2ccccc2)c(C)c1` gave a melting point of 123 °C. With `C=CCN(c1ccc(Cl)cc1[N+](=O)[O-])S(=O)(=O)c1ccc(C)cc1` the figure was 77 to 78 °C; with `COc1cccc2c1C13CCN(C)C(C2)C1CCC(=O)C3` (single isomer, unassigned; (-)), 145 to 147 °C. The same measure for `CC(CCCCN(C)c1ccccc1)NCC(O)c1ccc(O)c(C(N)=O)c1` (centres undefined): 157 to 160 °C; for `CCOc1nn(-c2ccc(C(F)(F)F)cn2)cc1CCCOc1cccc(OC)c1CCC(=O)O`: 110 to 111 °C.

As to `COC(=O)c1sc2ccc(Br)cc2c1-c1ccccc1`, the melting point lay within 125 to 126 °C. For `CC(C)(C)c1cc(CCc2ccccc2NC(=O)NCCCCc2ccccc2)cc(C(C)(C)C)c1O`, the melting point was determined as 157 °C. `Cc1ccc2c(c1)c(=O)c1c(cnn1C)n2CCCl`: the melting point lay in the range of 116 to 119 °C. The compound `CCOC(=O)C1(Oc2ccc(O)cc2)CCC1` returned a melting point of 118 to 120 °C. In turn, `c1ccc(-c2nnc3cc(-c4cccnc4)c(OCc4ccccn4)nn23)cc1` displayed a melting point of 206 °C. As to `CN(Cc1ccccc1)C1(CNC(=O)c2ccc(Cl)c(Cl)c2)CCCCC1`, the melting point lay in the range of 139 to 145 °C. Compound `CNC(=O)Oc1ccccc1OC` returned a melting point of 90 to 92 °C. Turning to `CCCCCCCCNC(=O)CC(=O)c1c2ccccc2cc2ccccc12`, the melting point is 70 to 72 °C. With `CNC(=O)c1cccc(Oc2ncccc2C(=O)NCc2ccccc2)c1` the figure was 164 to 167 °C; with `Cc1c(OCc2ccccn2)nn2c(-c3ccccc3)nnc2c1C`, 185 °C; with `CN(C)c1cccc(-c2ccc3nnn(Cc4ccc5ncccc5c4)c3n2)c1`, 124 to 126 °C.

Turning to `COCCN(CCOC)c1ccc(NC(=O)Nc2ccc(Oc3ccncc3)cc2)cc1C(F)(F)F`, the melting point was in the range of 64.5 to 65 °C. Regarding `CNC(=S)Nc1ccccc1-c1ccccc1`, the melting point was 152 to 153 °C.

`O=C1CCC(N2Cc3c(OCc4ccc(C(=O)NCCN5CCCCC5)cc4)cccc3C2=O)C(=O)N1` (centres undefined): the melting point was 220 to 222 °C. The compound `CN(C)S(=O)(=O)c1ccc2c(c1)CC(Br)C2=O` (centres undefined) gave a melting point of 115 °C. Regarding `CC(=O)N1CC(C)(C)c2cc(OC(C)C)ccc21`, the melting point lay within 86 to 87 °C.

For the compound `Cn1c2c(ccc1=O)C(NCCc1ccc(Cl)cc1)CCC2` (centres undefined), the melting point lay in the range of 110 to 112 °C. With `CCOC(CNC(=S)Nc1c(F)ccc2nc(C)ccc12)OCC` the figure was 189 to 191 °C. The compound `FC(F)(F)c1cccnc1-n1c(/C=C/c2ccccc2)nc2ccccc21` yielded a melting point of 156 to 157 °C. With `CC(=O)Oc1ccccc1C1SC[C@@H](C(=O)O)N1C(=O)CCSC(C)=O` (some centres undefined) the figure was 144 to 145 °C. `Clc1ccc(-c2nc3n(c2-c2ccc(Cl)cc2)CCC3)cc1` returned a melting point of 189 to 192 °C. For the compound `c1ccc(Nc2ncnc3[nH]ccc23)cc1`, the melting point lay within 234 to 236 °C. For `Cc1ccccc1COC(C)(CO)CO`, the melting point lay in the range of 90 to 91 °C. The same measure for `Cc1oc(-c2ccccc2)nc1COc1ccc(Cn2cc(/C=C/C(=O)O)c(-c3ccccc3)c2)cc1`: 154 to 155 °C; for `CCCc1nn(C)c2c(=O)[nH]c(-c3cc(C(=O)CBr)ccc3OCC)nc12`: 159 to 160 °C; for `CS(=O)(=O)c1ccc(-c2nn3c4c(oc3c2-c2ccc(F)cc2)CCCC4)cc1`: 183 to 184 °C. With `CC(C)(C)c1ccc(OCCCCCCCCCCC(Cl)(Cl)C(=O)O)cc1` the figure was 56 to 57 °C; with `N#Cc1ccccc1OCCc1c[nH]cn1`, 170 to 171 °C. The same measure for `COc1ccc(C2=NN(C3CCN(c4ncnc5sccc45)CC3)C(=O)[C@@H]3CC=CC[C@H]23)cc1OC`: 219 to 220 °C; for `CCN(c1ccc(C)c2cc(-c3ncc(CCl)s3)[nH]c12)S(=O)(=O)c1cccs1`: 177 to 178 °C; for `CC(C)c1cccc(C(C)C)c1NC(=O)C1CC2=C(CCCCCCCCCC2)C1=O` (centres undefined): 225 to 229 °C.

`O=C(CCl)Cc1ccc(Cl)cc1` returned a melting point of 40.5 to 45.5 °C. `Cc1cccc(NC(=O)NC2N=C(c3ccccc3F)c3ccccc3N(Cc3cccnc3)C2=O)c1` (racemic) showed a melting point of 242 to 243 °C. The same measure for `CC(=O)Nc1ccc(C(C)=O)c2c1OCCO2`: 142 to 144 °C; for `CNC(=O)C(C)NC(=O)OC(C)(C)C` (centres undefined): 117 to 118 °C; for `COc1ccc(CN(C)CCc2ccc(NC(=O)c3cccc4c(=O)c5cccc(F)c5[nH]c34)cc2)cc1OC`: 175 °C. As to `Cc1cc(Br)sc1-c1nc(-c2c(F)cccc2Cl)nn1C`, the melting point was in the range of 117 to 118 °C. For `CCCCCC(CC(=O)Nc1cc(C(N)=O)ccc1C(C)(C)C)c1cccc(OC)c1O` (centres undefined), the melting point lay in the range of 118 to 121 °C. The same measure for `[O-][N+]1=C(c2ccccc2Cl)c2nc(Cl)ccc2-n2cnnc2C1`: 242 to 244 °C. In turn, `CN1CCN(c2ccc(S(=O)(=O)c3ccc(F)cc3)c(N)c2)CC1` displayed a melting point of 85 to 89 °C. The compound `CCOC(=O)C(=O)CC(=O)/C=C/c1ccc(Cl)cc1` had a melting point of 117 to 118 °C. On to `COc1cccc(Sc2cccc([N+](=O)[O-])c2C#N)c1`, for which the melting point is 144 to 147 °C. The compound `CC(=O)Nc1ccccc1S(=O)(=O)NCCN1[C@H](C)Cc2ccsc2[C@@H]1C` (relative stereo) showed a melting point of 104 to 109 °C.

On to `O=C1N[C@H](Cc2cccc(OC(F)(F)C(F)F)c2)[C@H](c2ccnc(F)c2)O1` (racemic), for which the melting point lay within 118 to 119 °C. Turning to `CCOC(=O)c1c(CN(CC)CC)nc2ccc(Cl)cc2c1-c1ccccc1`, the melting point fell in the range of 107 to 108 °C. On to `CC(=O)Nc1ccc(C=Cc2cc(=O)cc(-c3ccccc3)o2)cc1`, for which the melting point lay within 271 to 272 °C. Compound `CCOC(=O)c1sc(N)nc1-c1cccc(C)c1` displayed a melting point of 183 to 184 °C. On to `COC(=O)c1ccc(Cc2cn(C)c3ccc(NC(=O)NC4CCCC4)cc23)c(OC)c1`, for which the melting point was in the range of 210 to 212 °C. `Cc1ccc(-c2csc(-c3ccc(C(=O)O)cc3)n2)cc1` came in with a melting point of 289 to 290 °C. Consider `Cc1nc(-n2cnn(CCO)c2=O)sc1C(=O)NCc1cccnc1`, for which the melting point fell in the range of 201 to 202 °C. With `O=C(NCCc1ccccc1)c1ccccc1-c1ccccc1CNS(=O)(=O)c1cccc(C(F)(F)F)c1` the figure was 145 °C. The same measure for `O=C(NCCO)/C(=C/c1ccc(Cl)cc1)NC(=O)c1ccc(OCCc2ccc(F)cc2)cc1`: 60 to 63 °C. Consider `O=C1CN=C(c2ccccc2)c2cc(NO)ccc2N1`, for which the melting point fell in the range of 186 to 187 °C. The same measure for `Nc1ncnc2c1c(-c1ccc(Oc3ccccc3CN3CCOCC3)cc1)cn2C1CCOC1` (centres undefined): 169 to 171 °C; for `Oc1ccc2c(c1)CC(NCC(O)c1cccc(Cl)c1)CC2` (centres undefined): 175 °C.

In turn, `COCC1Cc2c(Cl)c(C)cc([N+](=O)[O-])c2O1` (centres undefined) came in with a melting point of 117 to 119 °C. With `CCOC(=O)Nc1cccc(C(=O)C=CN(C)C)c1` the figure was 121 to 122 °C; with `Cc1nc(SC(=N)N)[nH]c1C`, 283 to 285 °C. With `CCS(=O)(=O)N(C)[C@@H]1c2cc(OCc3ccccc3)ccc2OC(C)(C)[C@H]1O`, the melting point was 165 to 167 °C. In turn, `CCOC(=O)C(C#N)=CNc1ccc(CC)cn1` registered a melting point of 155 to 156 °C.

Source of the values: a melting point compilation (Tetko et al.; mined from patent text by program, amines drawn as free bases though some values may be those of a salt).
